Assay results as given in patent publication US8962313B2, “Method for the simultaneous induction of CTL and γδT cell” (Medinet Co., Ltd., priority 2008, dated 2015).

Columns and labels:
Format in all cases: cell-based, human
CD56 on γδT cells = test: Surface antigen (CD3, Vγ9-TCR, CD56) expression ratio of γδT cells in cultured peripheral blood mononuclear cells, FACS; conditions: Day 13 of culture; 5 μM zoledronic acid, 1,000 U/mL IL-2; Disease Antigen (+) = plus 2 μg/ml Mart-1 (A27L)
Method: Whether the addition of a disease antigen affects the expression ratio of CD56 on γδT Cells or not was examined by the following procedures. CD56 is an isoform of a neural cell adhesion molecule (N-CAM) and an adhesion factor known as a marker for NK cells. It is one of the markers providing indicators of the cytotoxic activity of γδT cells.
1) Peripheral blood (8 ml) was collected from a healthy donor and peripheral blood mononuclear cells were separated therefrom using a density gradient solution for blood cell separation.
(§1) 2) The resultant peripheral blood mononuclear cells were suspended in AIM-V.
(§2) 3) These peripheral blood mononuclear cells (1.8×10^6/25 mL) were seeded in a 12-well plate (SUMILON). Thereto was added 1,000 U/mL IL-2, to which 5 μM zoledronic acid (ZOMETA) and 2 μg/ml Mart-1 (A27L) as a peptide were further added, followed by starting culture under conditions of 37° C. and 5% CO2 concentration.
(§3) 4) In addition, AB serum was added in an amount of 10% after starting the culture.
5) AIM-V containing 1,000 U/ml IL-2 and AB serum were added depending on the proliferation of cells, which were then cultured for up to 14 days.
6) In the cell population obtained after culture for up to 14 days as described above, the percentage of cells expressing TCRVγ9 or the percentage of cells expressing CD-56 were measured using an anti-TCRVγ9 antibody (Beckman Coulter), an anti-CD56 antibody (Beckman Coulter) and an anti-CD3 antibody (Beckman Coulter) with FACS (Epics XL-MCL ADC, Beckman Coulter).

[1] = test system: γδT cells in peripheral blood mononuclear cells; test: Induction of γδT cells (TCRVγ9-expressing cells) in cultured peripheral blood mononuclear cells, FACS; conditions: 5 μM zoledronic acid, 1,000 U/mL IL-2, Disease Antigen (+) = plus 2 μg/ml Mart-1 (A27L)
Method: (§4) 1) Peripheral blood (42 ml) was collected from a healthy donor and peripheral blood mononuclear cells were separated therefrom using a density gradient solution for blood cell separation.
as §1
as §2, with “(8×10^6/4” for “(1.8×10^6/25”, “6-well” for “12-well”, “(ZOMETA (trade name))” for “(ZOMETA)”, “(A27L, sequence: […])” for “(A27L)”
as §3
(§5) 5) AIM-V containing 1,000 U/ml IL-2 and AB serum were added depending on the proliferation of cells, which were then cultured for 14 days.
(§6) 6) In the cell population obtained after culture for 7 days or 14 days as described above, the percentage of disease antigen specific CD8-positive T cells and the percentage of cells expressing TCRVγ9 were measured using an anti-CD8 antibody (BD Pharmingen), T-Select HLA-A*0201 Mart-1 Tetramer […] (MBL), an anti-TCRVγ9 antibody (Beckman Coulter) and an anti-CD3 antibody (Beckman Coulter) with a fluorescence-activated cell sorter (hereinafter referred to as FACS; Epics XL-MCL ADC, Beckman Coulter).

[2] = test system: disease antigen specific CD8-positive T cells in peripheral blood mononuclear cells; test: Induction of disease antigen specific CD8-positive T cells (CTLs) in cultured peripheral blood mononuclear cells, FACS with Mart-1 tetramer; conditions: 5 μM zoledronic acid, 1,000 U/mL IL-2, Disease Antigen (+) = plus 2 μg/ml Mart-1 (A27L)
Method: as §4, §1
as §2, with “(8×10^6/4” for “(1.8×10^6/25”, “6-well” for “12-well”, “(ZOMETA (trade name))” for “(ZOMETA)”, “(A27L, sequence: […])” for “(A27L)”
as §3, §5, §6

## O=P(O)(O)C(O)(Cn1ccnc1)P(=O)(O)O [zoledronic acid]
CD56 on γδT cells
  Surface Antigen Expression Ratio (%): CD3, Gate Area Live Cells: 98.5%
  Surface Antigen Expression Ratio (%): CD56, Gate Area CD3: 53.1%
  Surface Antigen Expression Ratio (%): CD56, Gate Area Live Cells: 54.4%
  Surface Antigen Expression Ratio (%): CD56, Gate Area Vγ9: 53.1%
  Surface Antigen Expression Ratio (%): Vγ9-TCR, Gate Area Live Cells: 97.0%
[1]; Donor A, 7 days of culture
  Expansion Fold (times) of γδT Cells Contained in Mononuclear Cells: 50.40 times
  Percentage (%) of γδT Cells Contained in Mononuclear Cells: 43.7%
[1]; Donor A, 14 days of culture
  Expansion Fold (times) of γδT Cells Contained in Mononuclear Cells: 4027.31 times
  Percentage (%) of γδT Cells Contained in Mononuclear Cells: 80.9%
[1]; Donor B, 7 days of culture
  Expansion Fold (times) of γδT Cells Contained in Mononuclear Cells: 31.31 times
  Percentage (%) of γδT Cells Contained in Mononuclear Cells: 68.2%
[1]; Donor B, 14 days of culture
  Expansion Fold (times) of γδT Cells Contained in Mononuclear Cells: 1328.85 times
  Percentage (%) of γδT Cells Contained in Mononuclear Cells: 99.0%
[1]; Donor C, 7 days of culture
  Expansion Fold (times) of γδT Cells Contained in Mononuclear Cells: 4.97 times
  Percentage (%) of γδT Cells Contained in Mononuclear Cells: 28.6%
[1]; Donor C, 14 days of culture
  Expansion Fold (times) of γδT Cells Contained in Mononuclear Cells: 1244.02 times
  Percentage (%) of γδT Cells Contained in Mononuclear Cells: 89.2%
[2]; Donor A, 7 days of culture
  Expansion Fold (times) of Disease Antigen Specific CD8-Positive T Cells Contained in Mononuclear Cells: 0.00 times
  Percentage (%) of Disease Antigen Specific CD8-Positive T Cells Contained in Mononuclear Cells: 0.00%
[2]; Donor A, 14 days of culture
  Expansion Fold (times) of Disease Antigen Specific CD8-Positive T Cells Contained in Mononuclear Cells: 0.00 times
  Percentage (%) of Disease Antigen Specific CD8-Positive T Cells Contained in Mononuclear Cells: 0.00%
[2]; Donor B, 7 days of culture
  Expansion Fold (times) of Disease Antigen Specific CD8-Positive T Cells Contained in Mononuclear Cells: 1.79 times
  Percentage (%) of Disease Antigen Specific CD8-Positive T Cells Contained in Mononuclear Cells: 0.01%
[2]; Donor B, 14 days of culture
  Expansion Fold (times) of Disease Antigen Specific CD8-Positive T Cells Contained in Mononuclear Cells: 0.00 times
  Percentage (%) of Disease Antigen Specific CD8-Positive T Cells Contained in Mononuclear Cells: 0.00%
[2]; Donor C, 7 days of culture
  Expansion Fold (times) of Disease Antigen Specific CD8-Positive T Cells Contained in Mononuclear Cells: 0.57 times
  Percentage (%) of Disease Antigen Specific CD8-Positive T Cells Contained in Mononuclear Cells: 0.02%
[2]; Donor C, 14 days of culture
  Expansion Fold (times) of Disease Antigen Specific CD8-Positive T Cells Contained in Mononuclear Cells: 0.00 times
  Percentage (%) of Disease Antigen Specific CD8-Positive T Cells Contained in Mononuclear Cells: 0.00%
